Experimental data: patent US5948817A, “Polycyclic ethyl alkylamide melatonergic agents” (Bristol-Myers Squibb Company, priority 1998, dated 1999)

Target: T1, melatonin ML1A receptor (Homo sapiens, UniProt P48039)
T1 construct: expressed in transfected cells; membrane homogenates
Assay: Melatonergic binding (2-[125I]-iodomelatonin, membrane homogenates of NIH-3T3 cells expressing ML1A receptor)
Conditions: 37° C. for 1 hour, NIH-3T3 cell membranes, read-out: IC50, binding affinity for melatonin receptors
From the text: The compounds of the invention are melatonergic agents. […] Further, the compounds are agonists as determined by their ability, like melatonin, to block the forskolin-stimulated accumulation of cAMP in certain cells. Due to these properties, the compounds and compositions of the invention should be useful as sedatives, chronobiotic agents, anxiolytics, antipsychotics, analgesics, and the like. Specifically, these agents should find use in the treatment of stress, sleep disorders, seasonal depression, appetite regulation, shifts in circadian cycles, melancholia, jet-lag, glaucoma, reproductive disorders, cancer, premenstrual syndrome, immune disorders, inflammatory diseases, neuroendocrine disorders and related conditions.
The melatonergic binding properties of compounds of the invention were measured using the following procedure.
(a) TME=50 mM Tris buffer containing 12.5 mM MgCl2, and 2 mM EDTA, pH 7.4 at 37° C. with concentrated HCl.
(b) Wash buffer: 20 mM Tris base containing 2 mM MgCl2. pH 7.4 at room temperature.
(c) 10^-4 M melatonin (10^-5 M final concentration).
(d) 2-[^125 I]-iodomelatonin, […] final concentration.
The melatonin ML1A receptor cDNA was subcloned into pcDNA3 and introduced into NIH-3T3 cells using Lipofectamine. […]

T1 sequence (P48039 whole entry): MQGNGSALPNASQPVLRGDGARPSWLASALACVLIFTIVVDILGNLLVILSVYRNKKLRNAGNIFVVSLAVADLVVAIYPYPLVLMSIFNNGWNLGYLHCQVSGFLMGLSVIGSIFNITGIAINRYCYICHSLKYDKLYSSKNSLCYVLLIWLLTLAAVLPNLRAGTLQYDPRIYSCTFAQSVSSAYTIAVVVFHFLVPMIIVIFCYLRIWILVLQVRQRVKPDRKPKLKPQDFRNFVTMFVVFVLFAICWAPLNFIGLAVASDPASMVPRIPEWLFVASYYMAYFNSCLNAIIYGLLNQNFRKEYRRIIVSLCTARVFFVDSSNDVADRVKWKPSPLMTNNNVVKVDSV

IC50 [µM] | SMILES
< 0.025 | CCC(=O)NCCC1c2ccccc2-c2ccc3c(c21)CCO3 (centres unmarked) [Example 1, N-[2-(2,10-dihydro-1H-fluoreno[2,1-b]furan-10-yl)ethyl]propanamide]
< 0.025 | CCC(=O)NCCC1c2cc(OC)ccc2-c2ccc3c(c21)OCO3 (centres unmarked) [Example 2, N-[2-(8-Methoxy-10H-fluoreno[1,2-d]-1,3-dioxol-10-yl)ethyl]propanamide]
